Results published in patent US20250017912A1, “METHODS FOR DOWN-REGULATION AND UP-REGULATION OF PATHWAYS” (MedRegen, LLC, priority 2023, published 2025).
Read-outs that look alike come from different tables or passages of the source.

Key:
[1] = tested on: cell migration stimulated by CXCL12; conditions: cited from earlier work
[2] = in vivo
CD34+HSCs = conditions: cited from earlier work
clinical = conditions: human, in vivo
[3] = Tacrolimus whole blood pharmacokinetics (LC-MS-MS) after SC Composition A; format: in vivo, human; conditions: for Tacrolimus blood trough levels: 0.01 ml/kg dose group; for AUC / Cmax / Tmax / half-life: human, whole blood; for AUC: read-out: Tacrolimus AUCtau (GM); for Cmax: read-out: Tacrolimus Cmax (GM)
Method: Tacrolimus. Blood samples were obtained from all subjects in parallel as for plerixafor. Whole blood from each sample was stored in −80° C. condition until shipment. The analysis of K2EDTA whole blood for the quantitation of tacrolimus using a validated method by LC-MS-MS was performed by Worldwide Clinical Trials, Bioanalytical Services (Austin, TX, USA) in compliance with principles of GLP standards as referenced above.
Study data were collected and similar pharmacokinetic parameters as above were calculated using Analyst® (Version 1.4.2 or 1.6.1, Applied Biosystems/MDS Sciex) and evaluated with Watson Laboratory Information Management System™ (LIMS; Version 7.2.0.03, Thermo Fisher Scientific) software.

[4] = sc, 0.005 mL/kg, Composition A 0.005 mL/kg SC QAD, Day 5
[5] = sc, 0.005 mL/kg, Composition A 0.005 mL/kg SC, Day 1
[6] = sc, 0.01 mL/kg, Composition A 0.01 mL/kg SC QAD, Day 5
[7] = sc, 0.01 mL/kg, Composition A 0.01 mL/kg SC, Day 1
[8] = sc, 0.02 mL/kg, Composition A 0.02 mL/kg SC QAD, Day 5
[9] = sc, 0.02 mL/kg, Composition A 0.02 mL/kg SC, Day 1

Compound: c1cc(CN2CCCNCCNCCCNCC2)ccc1CN1CCCNCCNCCCNCC1 [Plerixafor, 1,1′-[1,4-phenylenebis(methylene)]bis-1,4,8,11-tetraazacyclo-tetradecane]
- IC50 [1]: 51 ± 17 nM
- Plerixafor median time to Cmax ([2]; human): 1 to 3 h
- Plerixafor elimination ([2]; human, 48 h): fully eliminated at 48 hours
- Plerixafor Cmax and AUC versus dose [2]: increased in a dose-proportional manner
- Peak CD34+ (CD34+HSCs; high dose plerixafor (0.48 mg/kg)): 32.2 c/μL
- CD34+HSCs mobilized at peak levels (CD34+HSCs; normal dose of plerixafor (0.24 mg/kg)): 27.8 µL⁻¹
- half-life (clinical; Plerixafor geometric mean t1/2): 3 to 6 h
- half-life (clinical; sc, Plerixafor t1/2 (GM)): 3.29 h

Compound: C=CC[C@@H]1/C=C(\C)C[C@H](C)C[C@H](OC)[C@H]2O[C@@](O)(C(=O)C(=O)N3CCCC[C@H]3C(=O)O[C@H](/C(C)=C/[C@@H]3CC[C@@H](O)[C@H](OC)C3)[C@H](C)[C@@H](O)CC1=O)[C@H](C)C[C@@H]2OC [Tacrolimus]
- Tacrolimus blood trough levels ([3]; day 1): less than 2 ng/ml
- Tacrolimus blood trough levels ([3]; day 5): < 3 ng/mL
- Tacrolimus Cmax and AUC versus dose ([3]; Composition A 0.005, 0.01, 0.02 mL/kg, Day 1 and QAD for 5 days): increased in a dose-proportional manner
- Tacrolimus Ctrough (GM) ([3]; Composition A 0.005 mL/kg SC QAD, Day 5): 0.88 ng/mL
- Tacrolimus Ctrough (GM) ([3]; Composition A 0.005 mL/kg SC, Day 1): 0.57 ng/mL
- Tacrolimus median Ctrough ([3]; Composition A 0.005 mL/kg, Day 1): 0.58 ng/mL
- Tacrolimus Ctrough ([3]; Composition A 0.005 mL/kg, Day 5): 0.90 ng/mL
- Tacrolimus Ctrough (GM) ([3]; Composition A 0.01 mL/kg SC QAD, Day 5): 1.89 ng/mL
- Tacrolimus Ctrough (GM) ([3]; Composition A 0.01 mL/kg SC, Day 1): 1.45 ng/mL
- Tacrolimus median Ctrough ([3]; Composition A 0.01 mL/kg, Day 1): 1.48 ng/mL
- Tacrolimus Ctrough ([3]; Composition A 0.01 mL/kg, Day 5): 1.99 ng/mL
- Tacrolimus Ctrough (GM) ([3]; Composition A 0.02 mL/kg SC QAD, Day 5): 2.94 ng/mL
- Tacrolimus Ctrough (GM) ([3]; Composition A 0.02 mL/kg SC, Day 1): 2.12 ng/mL
- Tacrolimus median Ctrough ([3]; Composition A 0.02 mL/kg, Day 1): 2.24 ng/mL
- Tacrolimus Ctrough ([3]; Composition A 0.02 mL/kg, Day 5): 3.19 ng/mL
- AUC [3, 4]: 70.1 ng·h/mL
- Cmax [3, 4]: 2.09 ng/mL
- Tmax ([3]; sc, 0.005 mL/kg, Composition A 0.005 mL/kg SC QAD, Day 5, read-out: Tacrolimus Tmax (Median)): 10 h
- half-life ([3]; sc, 0.005 mL/kg, Composition A 0.005 mL/kg SC QAD, Day 5, read-out: Tacrolimus t1/2 (GM) (converted)): 24.9 h
- AUC [3, 5]: 46.4 ng·h/mL
- Cmax [3, 5]: 1.47 ng/mL
- Tmax ([3]; sc, 0.005 mL/kg, Composition A 0.005 mL/kg SC, Day 1, read-out: Tacrolimus Tmax (Median)): 7.5 h
- half-life ([3]; sc, 0.005 mL/kg, Composition A 0.005 mL/kg SC, Day 1, read-out: Tacrolimus t1/2 (GM) (converted)): 23.8 h
- AUC [3, 6]: 171 ng·h/mL
- Cmax [3, 6]: 5.37 ng/mL
- Tmax ([3]; sc, 0.01 mL/kg, Composition A 0.01 mL/kg SC QAD, Day 5, read-out: Tacrolimus Tmax (Median)): 5.5 h
- half-life ([3]; sc, 0.01 mL/kg, Composition A 0.01 mL/kg SC QAD, Day 5, read-out: Tacrolimus t1/2 (GM) (converted)): 29.5 h
- AUC [3, 7]: 105 ng·h/mL
- Cmax [3, 7]: 3.15 ng/mL
- Tmax ([3]; sc, 0.01 mL/kg, Composition A 0.01 mL/kg SC, Day 1, read-out: Tacrolimus Tmax (Median)): 12 h
- half-life ([3]; sc, 0.01 mL/kg, Composition A 0.01 mL/kg SC, Day 1, read-out: Tacrolimus t1/2 (GM) (converted)): 37.8 h
- AUC [3, 8]: 237 ng·h/mL
- Cmax [3, 8]: 7.91 ng/mL
- Tmax ([3]; sc, 0.02 mL/kg, Composition A 0.02 mL/kg SC QAD, Day 5, read-out: Tacrolimus Tmax (Median)): 2 h
- half-life ([3]; sc, 0.02 mL/kg, Composition A 0.02 mL/kg SC QAD, Day 5, read-out: Tacrolimus t1/2 (GM) (converted)): 30.6 h
- AUC [3, 9]: 152 ng·h/mL
- Cmax [3, 9]: 4.49 ng/mL
- Tmax ([3]; sc, 0.02 mL/kg, Composition A 0.02 mL/kg SC, Day 1, read-out: Tacrolimus Tmax (Median)): 8.01 h
- half-life ([3]; sc, 0.02 mL/kg, Composition A 0.02 mL/kg SC, Day 1, read-out: Tacrolimus t1/2 (GM) (converted)): 36.4 h
- half-life ([3]; subcutaneous, Composition A 0.005, 0.01, 0.02 mL/kg, Days 1 and 5, read-out: Tacrolimus GM t1/2): 24 to 38 h
- Tmax ([3]; subcutaneous, single dose Day 1 and QAD dosing for 5 days, all doses, read-out: Tacrolimus median Tmax): 2 to 12 h
- Mean tacrolimus trough levels ([3]; intermediate dose of MRG-001 (0.01 mL/kg)): 1.8 ng/mL
- Mean tacrolimus trough levels ([3]; lowest dose of MRG-001 (0.005 ml/kg)): 0.8 ng/mL
- Peak levels of tacrolimus ([3]; middle dose cohort (FIG. 1C)): 2 to 3 ng/mL
